Reference: patent publication US11661426B2, “Imidazole-containing inhibitors of ALK2 kinase” (BioCryst Pharmaceuticals, Inc., priority 2017, dated 2023)

Biological target: ALK2 (Homo sapiens (Human), UniProt Q04771)
Test: ALK2 inhibition, LanthaScreen Eu Kinase Binding Assay (ThermoFisher Scientific / Life Technologies)
Conditions: read-out: Measured Ki (IC50) Value for Compounds: IC50
Protocol: Biochemical assays to measure the inhibitory effects of the compounds were performed by ThermoFisher Scientific (Life Technologies). ALK2 inhibition was tested using LanthaScreen™ Eu Kinase Binding Assay screening protocol.

Chain of ALK2 (Q04771 21-509): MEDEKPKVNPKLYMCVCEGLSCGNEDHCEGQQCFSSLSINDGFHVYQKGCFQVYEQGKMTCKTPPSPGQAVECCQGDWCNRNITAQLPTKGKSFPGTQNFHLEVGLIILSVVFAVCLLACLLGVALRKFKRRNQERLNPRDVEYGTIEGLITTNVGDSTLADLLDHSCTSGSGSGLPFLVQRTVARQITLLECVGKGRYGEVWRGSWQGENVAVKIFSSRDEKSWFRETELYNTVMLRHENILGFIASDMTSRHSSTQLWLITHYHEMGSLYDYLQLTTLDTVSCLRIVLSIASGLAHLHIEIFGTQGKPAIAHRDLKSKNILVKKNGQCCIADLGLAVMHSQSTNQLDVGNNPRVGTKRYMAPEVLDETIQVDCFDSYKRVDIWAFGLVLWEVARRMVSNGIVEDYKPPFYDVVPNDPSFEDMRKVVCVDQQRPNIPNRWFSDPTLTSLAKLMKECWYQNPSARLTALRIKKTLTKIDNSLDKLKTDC

Structure (SMILES) | IC50
COc1cc(-n2cnc(Nc3nc(N4CCC[C@H]4CO)nc4c3COCC4)c2)cc(OC)c1OC [Compound 342c, (S)-(1-(4-((1-(3,4,5-trimethoxyphenyl)-1H-imidazol-4-yl)amino)-7,8-dihydro-5H-pyrano[4,3-d]pyrimidin-2-yl)pyrrolidin-2-yl)methanol] | < 100 nM
COc1cc(-n2cnc(Nc3nc(N4CCC[C@H]4C(N)=O)nc4cc(C#N)ccc34)c2)cc(OC)c1OC [Compound 345c, (S)-1-(7-cyano-4-((1-(3,4,5-trimethoxyphenyl)-1H-imidazol-4-yl)amino)quinazolin-2-yl)pyrrolidine-2-carboxamide] | < 100 nM
COc1cc(-n2cnc(Nc3cc4ccccc4c(N4CCC[C@H]4CO)n3)c2)cc(OC)c1OC [Compound 346c, (S)-(1-(3-((1-(3,4,5-trimethoxyphenyl)-1H-imidazol-4-yl)amino)isoquinolin-1-yl)pyrrolidin-2-yl)methanol] | 100 to 1000 nM
COc1cc(-n2cnc(Nc3nc(N4CCC[C@H]4CO)nc4cc(C#N)ccc34)c2)cc(OC)c1OC [Compound 347a, (S)-2-(2-(hydroxymethyl)pyrrolidin-1-yl)-4-((1-(3,4,5-trimethoxyphenyl)-1H-imidazol-4-yl)amino)quinazoline-7-carbonitrile] | < 100 nM
COc1cc(-n2cnc(Nc3nc(N4CCC[C@@H]4CO)nn4c(CN5CCCCC5)ccc34)c2)cc(OC)c1OC [Compound 348a, (R)-(1-(7-(piperidin-1-ylmethyl)-4-((1-(3,4,5-trimethoxyphenyl)-1H-imidazol-4-yl)amino)pyrrolo[2,1-f][1,2,4]triazin-2-yl)pyrrolidin-2-yl)methanol] | < 100 nM
COc1cc(-n2cnc(Nc3nc(N4CCC[C@@H]4C(N)=O)nn4c(CN5CCCCC5)ccc34)c2)cc(OC)c1OC [Compound 349a, (R)-1-(7-(piperidin-1-ylmethyl)-4-((1-(3,4,5-trimethoxyphenyl)-1H-imidazol-4-yl)amino)pyrrolo[2,1-f][1,2,4]triazin-2-yl)pyrrolidine-2-carboxamide] | < 100 nM
COc1cc(-n2cnc(Nc3nc(N4CCC[C@H]4CO)nc4cc(N5CCCCC5)ccc34)c2)cc(OC)c1OC [Compound 358a, (S)-(1-(7-(piperidin-1-yl)-4-((1-(3,4,5-trimethoxyphenyl)-1H-imidazol-4-yl)amino)quinazolin-2-yl)pyrrolidin-2-yl)methanol] | < 100 nM
COc1cc(-n2cnc(Nc3nc4c(c(N5CCC[C@H]5CO)n3)CN(C(=O)OC(C)(C)C)C4)c2)cc(OC)c1OC [Compound 359c, (S)-tert-butyl 4-(2-(hydroxymethyl)pyrrolidin-1-yl)-2-(1-(3,4,5-trimethoxyphenyl)-1H-imidazol-4-ylamino)-5H-pyrrolo[3,4-d]pyrimidine-6(7H)-carboxylate] | < 100 nM
COc1cc(-n2cnc(Nc3nc4c(c(N5CCC[C@H]5CO)n3)CNC4)c2)cc(OC)c1OC [Compound 359d, (S)-(1-(2-(1-(3,4,5-trimethoxyphenyl)-1H-imidazol-4-ylamino)-6,7-dihydro-5H-pyrrolo[3,4-d]pyrimidin-4-yl)pyrrolidin-2-yl)methanol] | < 100 nM
COc1cc(-n2cnc(Nc3nc(N4CCC[C@H]4C(N)=O)nc4c3CNC4)c2)cc(OC)c1OC [Compound 360c, (S)-1-(4-(1-(3,4,5-trimethoxyphenyl)-1H-imidazol-4-ylamino)-6,7-dihydro-5H-pyrrolo[3,4-d]pyrimidin-2-yl)pyrrolidine-2-carboxamide] | < 100 nM
COc1cc(-n2cnc(Nc3nc(N4CCC[C@H]4CO)c4ccc(-c5cccc(NC(C)=O)c5)cc4n3)c2)cc(OC)c1OC [Compound 364b, (S)—N-(3-(4-(2-(hydroxymethyl)pyrrolidin-1-yl)-2-((1-(3,4,5-trimethoxyphenyl)-1H-imidazol-4-yl)amino)quinazolin-7-yl)phenyl)acetamide] | < 100 nM
COc1cc(-n2cnc(Nc3nc(N4CCC[C@H]4CO)nc4c3CN(C(=O)OC(C)(C)C)C4)c2)cc(OC)c1OC [Compound 365a, (S)-tert-butyl 2-(2-(hydroxymethyl)pyrrolidin-1-yl)-4-(1-(3,4,5-trimethoxyphenyl)-1H-imidazol-4-ylamino)-5H-pyrrolo[3,4-d]pyrimidine-6(7H)-carboxylate] | < 100 nM
COc1cc(-n2cnc(Nc3nc(N4CCC[C@H]4CO)nc4c3CNC4)c2)cc(OC)c1OC [Compound 365b, (S)-(1-(4-(1-(3,4,5-trimethoxyphenyl)-1H-imidazol-4-ylamino)-6,7-dihydro-5H-pyrrolo[3,4-d]pyrimidin-2-yl)pyrrolidin-2-yl)methanol] | < 100 nM
COc1cc(-n2cnc(Nc3nc4c(c(N5CCC[C@@H]5CO)n3)CN(C(=O)OC(C)(C)C)C4)c2)cc(OC)c1OC [Compound 366b, (R)-tert-butyl 4-(2-(hydroxymethyl)pyrrolidin-1-yl)-2-(1-(3,4,5-trimethoxyphenyl)-1H-imidazol-4-ylamino)-5H-pyrrolo[3,4-d]pyrimidine-6(7H)-carboxylate] | < 100 nM
OC[C@@H]1CCCN1c1cc(Cl)c2ccccc2n1 [Compound 367b, (S)-(1-(4-chloroquinolin-2-yl)pyrrolidin-2-yl)methanol] | > 1000 nM
COc1cc(-n2cnc(Nc3cc(N4CCC[C@H]4CO)c4ccccc4n3)c2)cc(OC)c1OC [Compound 368a, (S)-(1-(2-(1-(3,4,5-trimethoxyphenyl)-1H-imidazol-4-ylamino)quinolin-4-yl)pyrrolidin-2-yl)methanol] | 100 to 1000 nM

Next, values leading:

IC50 | Structure (SMILES)
< 100 nM | COc1cc(-n2cnc(Nc3nc(N4CCC[C@H]4CO)nc4cccc(F)c34)c2)cc(OC)c1OC [Compound 341a, (S)-(1-(5-fluoro-4-((1-(3,4,5-trimethoxyphenyl)-1H-imidazol-4-yl)amino)quinazolin-2-yl)pyrrolidin-2-yl)methanol]
< 100 nM | COc1cc(-n2cnc(Nc3nc4c(c(N5CCC[C@H]5CO)n3)COCC4)c2)cc(OC)c1OC [Compound 343b, (S)-(1-(2-((1-(3,4,5-trimethoxyphenyl)-1H-imidazol-4-yl)amino)-7,8-dihydro-5H-pyrano[4,3-d]pyrimidin-4-yl)pyrrolidin-2-yl)methanol]
< 100 nM | COc1cc(-n2cnc(Nc3nc(N4CCC[C@H]4CO)nc4cc(Br)ccc34)c2)cc(OC)c1OC [Compound 344c, (S)-(1-(7-bromo-4-((1-(3,4,5-trimethoxyphenyl)-1H-imidazol-4-yl)amino)quinazolin-2-yl)pyrrolidin-2-yl)methanol]
< 100 nM | COC(=O)c1cc(-n2cnc(Nc3nc(N4CCC[C@H]4C(N)=O)nn4cccc34)c2)cc(OC)c1OC [Compound 350d, (S)-methyl 5-(4-((2-(2-carbamoylpyrrolidin-1-yl)pyrrolo[2,1-f][1,2,4]triazin-4-yl)amino)-1H-imidazol-1-yl)-2,3-dimethoxybenzoate]
> 1000 nM | COc1cc(-n2cnc(Nc3nc(N4CCC[C@H]4C(N)=O)nn4cccc34)c2)cc(C(=O)NC2CCCC2)c1O [Compound 351d, (S)-1-(4-((1-(3-(cyclopentylcarbamoyl)-4-hydroxy-5-methoxyphenyl)-1H-imidazol-4-yl)amino)pyrrolo[2,1-f][1,2,4]triazin-2-yl)pyrrolidine-2-carboxamide]
> 1000 nM | OC[C@@H]1CCCN1c1nc(Nc2nc3ccccc3o2)c2sccc2n1 [Compound 352c, (S)-(1-(4-(benzo[d]oxazol-2-ylamino)thieno[3,2-d]pyrimidin-2-yl)pyrrolidin-2-yl)methanol]
> 1000 nM | Nc1n[nH]c2ccccc12 [Compound 353a, 1H-indazol-3-amine]
> 1000 nM | OC[C@@H]1CCCN1c1nc(Nc2cc(-c3ccccc3)[nH]n2)nc2ccoc12 [Compound 354b, (S)-(1-(2-((5-phenyl-1H-pyrazol-3-yl)amino)furo[3,2-d]pyrimidin-4-yl)pyrrolidin-2-yl)methanol]
< 100 nM | COC(=O)c1cc(-n2cnc(Nc3nc(N4CCC[C@H]4CO)c4cccn4n3)c2)cc(OC)c1OC [Compound 355a, (S)-methyl 5-(4-((4-(2-(hydroxymethyl)pyrrolidin-1-yl)pyrrolo[2,1-f][1,2,4]triazin-2-yl)amino)-1H-imidazol-1-yl)-2,3-dimethoxybenzoate]
< 100 nM | COc1cc(-n2cnc(Nc3nc(N4CCC[C@H]4CO)c4ccc(C#N)cc4n3)c2)cc(OC)c1OC [Compound 356b, (S)-4-(2-(hydroxymethyl)pyrrolidin-1-yl)-2-((1-(3,4,5-trimethoxyphenyl)-1H-imidazol-4-yl)amino)quinazoline-7-carbonitrile]
> 1000 nM | COc1cc(-c2ccc(Nc3nc(N4CCC[C@H]4CO)c4ccccc4n3)nc2)cc(OC)c1OC [Compound 357d, (S)-(1-(2-((5-(3,4,5-trimethoxyphenyl)pyridin-2-yl)amino)quinazolin-4-yl)pyrrolidin-2-yl)methanol]
< 100 nM | COc1cc(-n2cnc(Nc3nc(N4CCC[C@H]4CO)c4ccc(-c5cccc(N)c5)cc4n3)c2)cc(OC)c1OC [Compound 361c, (S)-(1-(7-(3-aminophenyl)-2-((1-(3,4,5-trimethoxyphenyl)-1H-imidazol-4-yl)amino)quinazolin-4-yl)pyrrolidin-2-yl)methanol]
< 100 nM | COc1cc(-n2cnc(Nc3nc(N4CCC[C@H]4CO)c4ccc(-c5cccc(F)c5)cc4n3)c2)cc(OC)c1OC [Compound 362b, (S)-(1-(7-(3-fluorophenyl)-2-((1-(3,4,5-trimethoxyphenyl)-1H-imidazol-4-yl)amino)quinazolin-4-yl)pyrrolidin-2-yl)methanol]
< 100 nM | COc1cc(-n2cnc(Nc3nc(N4CCC[C@H]4CO)c4ccc(-c5cccc(NS(C)(=O)=O)c5)cc4n3)c2)cc(OC)c1OC [Compound 363b, (S)—N-(3-(4-(2-(hydroxymethyl)pyrrolidin-1-yl)-2-((1-(3,4,5-trimethoxyphenyl)-1H-imidazol-4-yl)amino)quinazolin-7-yl)phenyl)methanesulfonamide]
< 100 nM | COc1cc(-n2cnc(Nc3nc4c(c(N5CCC[C@@H]5CO)n3)CNC4)c2)cc(OC)c1OC [Compound 366c, (R)-(1-(2-(1-(3,4,5-trimethoxyphenyl)-1H-imidazol-4-ylamino)-6,7-dihydro-5H-pyrrolo[3,4-d]pyrimidin-4-yl)pyrrolidin-2-yl)methanol]
